Legend:
Format in all cases: cell-based
[1] = test system: HDF (human); assay: Cytotoxicity in normal cells (MTT); conditions: 96 h, Normal cell, 4 days
[2] = test system: MEF (mouse); assay: Cytotoxicity in normal cells (MTT); conditions: 96 h, Normal cell, 4 days
[3] = test system: MCF7/ADR; assay: Anti-proliferative activity test in cancer cells exhibiting multidrug resistance (MTT)
Description: (§1) HeLa cells (American Type Culture Collection: ATCC, USA), a human cervical cancer cell line, were seeded in a 96-well plate at 3×10^3 cells/well, and the cells were then treated with compounds of Examples or Comparative Example according to the present invention and grown for 2 days. Then, MTT (3-(4,5-dimethylthiazol-2-yl)-2,5-diphenyltetrazolium bromide) reagent was added at 10 μL/well. […] The data shown in Table below are mean values of results obtained by repeating the analysis twice. Specifically, K562 and MCF7 (Bio Evaluation Center, Korea Research Institute of Bioscience and Biotechnology, Korea) and multidrug-resistant cell lines of each of these cell lines, i.e., K562/ADR and MCF7/ADR (Bio Evaluation Center, Korea Research Institute of Bioscience and Biotechnology, Korea), were cultured on microtiter plates (1-3×10^3 cells/well). […] The data shown in Table below are mean values of results obtained by repeating the analysis three times.

[4] = test system: K562/ADR; assay: as above
Description: as §1

[5] = test system: SK-N-MC; assay: Anti-proliferative activity in other cancer cell lines (MTT); conditions: Homo sapiens, 96 h, Brain, 4 days
Description: (§2) HeLa cells (American Type Culture Collection: ATCC, USA), a human cervical cancer cell line, were seeded in a 96-well plate at 3×10^3 cells/well, and the cells were then treated with compounds of Examples or Comparative Example according to the present invention and grown for 2 days. Then, MTT (3-(4,5-dimethylthiazol-2-yl)-2,5-diphenyltetrazolium bromide) reagent was added at 10 μL/well. After 2 hours, absorbance was measured at “OD 450” and statistical values were obtained using Prism™6 program. The data shown in Table below are mean values of results obtained by repeating the analysis twice.
(§3) Specifically, various cancer cell lines were cultured in a microtiter plate (1-3×10^3 cells/well), treated with the compound of Example 4 according to the present invention, and cultured for 4 days. Cytotoxicity was tested by MTT assay in the same manner as in Experimental Example 1-1, and IC50 was obtained by a log-dose response curve. The data shown in Table below are mean values of results obtained by repeating the analysis three times.

[6] = test system: K562; assay: as above; conditions: Homo sapiens, 96 h, Marrow (leukemia), 4 days
Description: as §2, §3

[7] = test system: RPMI-8226; assay: as above; conditions: Homo sapiens, 96 h, Marrow (leukemia), 4 days
Description: as §2, §3

[8] = test system: SNU 484; assay: as above; conditions: 96 h, Stomach, 4 days
Description: as §2, §3

[9] = test system: CCRF-CEM; assay: as above; conditions: Homo sapiens, 96 h, Peripheral blood, 4 days
Description: as §2, §3

[10] = test system: 786-O; assay: as above; conditions: Homo sapiens, 786-0, 96 h, Kidney, 4 days
Description: as §2, §3

[11] = test system: A549; assay: as above; conditions: Homo sapiens, 96 h, A549 (line stands under Liver), 4 days
Description: as §2, §3

[12] = test system: NCI-H522; assay: as above; conditions: Homo sapiens, 96 h, Lung, 4 days
Description: as §2, §3

[13] = test system: NCI-H226; assay: as above; conditions: Homo sapiens, 96 h, Lung, 4 days
Description: as §2, §3

[14] = test system: MOLT4; assay: as above; conditions: Homo sapiens, MOLT-4, 96 h, Marrow (leukemia), 4 days
Description: as §2, §3

[15] = test system: U-2-OS; assay: as above; conditions: Homo sapiens, U2OS, 96 h, Bone, 4 days
Description: as §2, §3

[16] = test system: NCI-H1299; assay: as above; conditions: Homo sapiens, 96 h, Lung, 4 days
Description: as §2, §3

[17] = test system: A498; assay: as above; conditions: Homo sapiens, 96 h, Kidney, 4 days
Description: as §2, §3

[18] = test system: Hep3B; assay: as above; conditions: Homo sapiens, 96 h, Liver, 4 days
Description: as §2, §3

[19] = test system: NCI-H125; assay: as above; conditions: Homo sapiens, 96 h, Lung, 4 days
Description: as §2, §3

[20] = test system: Colo 205; assay: as above; conditions: Homo sapiens, 96 h, Colon, 4 days
Description: as §2, §3

[21] = test system: HeLa CCL2; assay: as above; conditions: Homo sapiens, 96 h, Cervix, 4 days
Description: as §2, §3

[22] = test system: MDA-MB-468; assay: as above; conditions: Homo sapiens, 96 h, Breast, 4 days
Description: as §2, §3

[23] = test system: U373MG; assay: as above; conditions: Homo sapiens, U373 MG, 96 h, Brain, 4 days
Description: as §2, §3

[24] = test system: HCC1954; assay: as above; conditions: Homo sapiens, 96 h, Breast, 4 days
Description: as §2, §3

[25] = test system: A172; assay: as above; conditions: Homo sapiens, A 172, 96 h, Brain, 4 days
Description: as §2, §3

[26] = test system: SNB75; assay: as above; conditions: Homo sapiens, SNB-75, 96 h, CNS, 4 days
Description: as §2, §3

[27] = test system: NCI-H460; assay: as above; conditions: Homo sapiens, 96 h, Lung, 4 days
Description: as §2, §3

[28] = test system: HCT 116; assay: as above; conditions: Homo sapiens, 96 h, Colon, 4 days
Description: as §2, §3

[29] = test system: PC3; assay: as above; conditions: Homo sapiens, PC-3, 96 h, Prostate, 4 days
Description: as §2, §3

[30] = test system: A431; assay: as above; conditions: Homo sapiens, A-431, 96 h, Skin, 4 days
Description: as §2, §3

[31] = test system: HCT-15; assay: as above; conditions: Homo sapiens, 96 h, Colon, 4 days
Description: as §2, §3

[32] = test system: DU145; assay: as above; conditions: Homo sapiens, DU-145, 96 h, Prostate, 4 days
Description: as §2, §3

[33] = test system: SK-MEL 5; assay: as above; conditions: Homo sapiens, 96 h, Skin, 4 days
Description: as §2, §3

Q: For `CCOCCn1c(Cl)c(/C=N/NC(=O)c2cc3cc(C)ccc3o2)c2ccccc21` [Example 4, (E)-N′-[(2-chloro-1-(2-ethoxyethyl)-1H-indol-3-yl]methylene}-5-methylbenzofuran-2-carbohydrazide], which IC50 [1] is on record?
A: 27000 ± 7890 nM

Q: What about the IC50 [2] of the same compound?
A: 4010 ± 4580 nM

Q: And the IC50 ([3]; Homo sapiens, NCI/ADR-RES, 96 h, MCF7/ADR (multidrug-resistant), 4 days, MTT)?
A: 332 nM

Q: What about the “Resistance Factor” value ([3]; ratio IC50 MCF7/ADR to IC50 MCF7) of the same compound?
A: 0.40

Q: What about the IC50 ([4]; Homo sapiens, 96 h, K562/ADR (multidrug-resistant), 4 days, MTT) of the same compound?
A: 201 nM

Q: What about the “Resistance Factor” value ([4]; ratio IC50 K562/ADR to IC50 K562) of the same compound?
A: 0.57

Q: What about the IC50 [5] of the same compound?
A: 980 ± 110 nM

Q: What about the IC50 [6] of the same compound?
A: 470 ± 12 nM

Q: What about the IC50 [7] of the same compound?
A: 520 ± 130 nM

Q: What about the IC50 [8] of the same compound?
A: 350 ± 70 nM

Q: What about the IC50 [9] of the same compound?
A: 340 ± 20 nM

Q: What about the IC50 [10] of the same compound?
A: 130 ± 50 nM

Q: What about the IC50 [11] of the same compound?
A: 630 ± 120 nM

Q: What about the IC50 [12] of the same compound?
A: 370 ± 130 nM

Q: And the IC50 [13]?
A: 420 ± 60 nM

Q: What about the IC50 [14] of the same compound?
A: 300 ± 10 nM

Q: And the IC50 [15]?
A: 420 ± 60 nM

Q: What about the IC50 [16] of the same compound?
A: 560 ± 150 nM

Q: And the IC50 [17]?
A: 170 ± 8 nM

Q: And the IC50 [18]?
A: 190 ± 50 nM

Q: What about the IC50 [19] of the same compound?
A: 370 ± 200 nM

Q: What about the IC50 [20] of the same compound?
A: 360 ± 490 nM

Q: And the IC50 [21]?
A: 180 ± 4 nM

Q: What about the IC50 [22] of the same compound?
A: 690 ± 30 nM

Q: What about the IC50 [23] of the same compound?
A: 360 ± 10 nM

Q: And the IC50 [24]?
A: 410 ± 50 nM

Q: What about the IC50 [25] of the same compound?
A: 790 ± 90 nM

Q: And the IC50 [26]?
A: 390 ± 30 nM

Q: What about the IC50 [27] of the same compound?
A: 500 ± 90 nM

Q: What about the IC50 [28] of the same compound?
A: 450 ± 220 nM

Q: What about the IC50 [29] of the same compound?
A: 710 ± 180 nM

Q: And the IC50 [30]?
A: 220 ± 17 nM

Q: And the IC50 [31]?
A: 280 ± 70 nM

Q: What about the IC50 [32] of the same compound?
A: 490 ± 90 nM

Q: What about the IC50 [33] of the same compound?
A: 460 ± 140 nM
